What was measured:
[1] = Binding affinity to 5'-GCCCGCGC-3' DNA hairpin assessed as change in fluorescence intensity at 1 uM after 45 mins by fluorescence quenching analysis relative to control
[2] = Binding affinity to 5'-CCCGGCCG-3' DNA hairpin assessed as change in fluorescence intensity at 1 uM after 45 mins by fluorescence quenching analysis relative to control
[3] = Binding affinity to 5'-CCGCGGGC-3' DNA hairpin assessed as change in fluorescence intensity at 1 uM after 45 mins by fluorescence quenching analysis relative to control
[4] = Binding affinity to 5'-CCGCCGGG-3' DNA hairpin assessed as change in fluorescence intensity at 1 uM after 45 mins by fluorescence quenching analysis relative to control
[5] = Binding affinity to 5'-GGGCCGCG-3' DNA hairpin assessed as change in fluorescence intensity at 1 uM after 45 mins by fluorescence quenching analysis relative to control
[6] = Binding affinity to 5'-CCCCCCGC-3' DNA hairpin assessed as change in fluorescence intensity at 1 uM after 45 mins by fluorescence quenching analysis relative to control
[7] = Binding affinity to 5'-CGGGCGGG-3' DNA hairpin assessed as change in fluorescence intensity at 1 uM after 45 mins by fluorescence quenching analysis relative to control
[8] = Binding affinity to d(G4C4)2 DNA major groove assessed as change in electrostatic potential at 10 uM at pH 4.65 to 9.78 by UV-Visible spectrophotometric method
[9] = Binding affinity to 5'-GCGCGGCG-3' DNA hairpin assessed as change in fluorescence intensity at 1 uM after 45 mins by fluorescence quenching analysis relative to control
[10] = Binding affinity to 5'-CCCCCGCG-3' DNA hairpin assessed as change in fluorescence intensity at 1 uM after 45 mins by fluorescence quenching analysis relative to control
[11] = Binding affinity to 5'-GGGCGGGG-3' DNA hairpin assessed as change in fluorescence intensity at 1 uM after 45 mins by fluorescence quenching analysis relative to control
[12] = Binding affinity to 5'-GCCGCGCG-3' DNA hairpin assessed as change in fluorescence intensity at 1 uM after 45 mins by fluorescence quenching analysis relative to control
[13] = Binding affinity to 5'-CGCCGGCC-3' DNA hairpin assessed as change in fluorescence intensity at 1 uM after 45 mins by fluorescence quenching analysis relative to control
[14] = Binding affinity to 5'-GGCCCGGC-3' DNA hairpin assessed as change in fluorescence intensity at 1 uM after 45 mins by fluorescence quenching analysis relative to control
[15] = Binding affinity to 5'-GCGGCGGG-3' DNA hairpin assessed as change in fluorescence intensity at 1 uM after 45 mins by fluorescence quenching analysis relative to control
[16] = Binding affinity to 5'-CCGCGCGG-3' DNA hairpin assessed as change in fluorescence intensity at 1 uM after 45 mins by fluorescence quenching analysis relative to control
[17] = Binding affinity to 5'-GCGGGGCG-3' DNA hairpin assessed as change in fluorescence intensity at 1 uM after 45 mins by fluorescence quenching analysis relative to control
[18] = Binding affinity to 5'-CCCCGCGG-3' DNA hairpin assessed as change in fluorescence intensity at 1 uM after 45 mins by fluorescence quenching analysis relative to control
[19] = Binding affinity to 5'-CCCCGCGC-3' DNA hairpin assessed as change in fluorescence intensity at 1 uM after 45 mins by fluorescence quenching analysis relative to control
[20] = Binding affinity to 5'-CGGCCCCC-3' DNA hairpin assessed as change in fluorescence intensity at 1 uM after 45 mins by fluorescence quenching analysis relative to control
[21] = Binding affinity to 5'-GCGCGCCC-3' DNA hairpin assessed as change in fluorescence intensity at 1 uM after 45 mins by fluorescence quenching analysis relative to control
[22] = Binding affinity to 5'-CCGCCCCC-3' DNA hairpin assessed as change in fluorescence intensity at 1 uM after 45 mins by fluorescence quenching analysis relative to control
[23] = Binding affinity to 5'-GCGGGGGC-3' DNA hairpin assessed as change in fluorescence intensity at 1 uM after 45 mins by fluorescence quenching analysis relative to control
[24] = Binding affinity to 5'-GGGGGGCC-3' DNA hairpin assessed as change in fluorescence intensity at 1 uM after 45 mins by fluorescence quenching analysis relative to control
[25] = Binding affinity to 5'-GCCCCCCC-3' DNA hairpin assessed as change in fluorescence intensity at 1 uM after 45 mins by fluorescence quenching analysis relative to control
[26] = Binding affinity to 5'-CCCGGCCC-3' DNA hairpin assessed as change in fluorescence intensity at 1 uM after 45 mins by fluorescence quenching analysis relative to control
[27] = Binding affinity to 5'-CGCGCCCC-3' DNA hairpin assessed as change in fluorescence intensity at 1 uM after 45 mins by fluorescence quenching analysis relative to control
[28] = Binding affinity to 5'-GCCGCCCC-3' DNA hairpin assessed as change in fluorescence intensity at 1 uM after 45 mins by fluorescence quenching analysis relative to control
[29] = Binding affinity to 5'-GCGCGCCG-3' DNA hairpin assessed as change in fluorescence intensity at 1 uM after 45 mins by fluorescence quenching analysis relative to control
[30] = Binding affinity to 5'-GCGGGCGC-3' DNA hairpin assessed as change in fluorescence intensity at 1 uM after 45 mins by fluorescence quenching analysis relative to control
[31] = Binding affinity to 5'-GGGGCCGG-3' DNA hairpin assessed as change in fluorescence intensity at 1 uM after 45 mins by fluorescence quenching analysis relative to control
[32] = Binding affinity to 5'-CCGGGCGC-3' DNA hairpin assessed as change in fluorescence intensity at 1 uM after 45 mins by fluorescence quenching analysis relative to control
[33] = Binding affinity to 5'-CGGGGCCG-3' DNA hairpin assessed as change in fluorescence intensity at 1 uM after 45 mins by fluorescence quenching analysis relative to control
[34] = Binding affinity to 5'-GCCGCCGG-3' DNA hairpin assessed as change in fluorescence intensity at 1 uM after 45 mins by fluorescence quenching analysis relative to control
[35] = Binding affinity to 5'-CCGCGGCG-3' DNA hairpin assessed as change in fluorescence intensity at 1 uM after 45 mins by fluorescence quenching analysis relative to control
[36] = Binding affinity to 5'-GGGGGGGG-3' DNA hairpin assessed as change in fluorescence intensity at 1 uM after 45 mins by fluorescence quenching analysis relative to control

- Activity [1]: 40.4%
- Activity [2]: 44.5%
- Activity [3]: 45.7%
- Activity [4]: 43.7%
- Activity [5]: 39.6%
- Activity [6]: 30.2%
- Activity [7]: 50.6%
- Activity [8]: -1.01 kT/e
- Activity [9]: 49.1%
- Activity [10]: 35.4%
- Activity [11]: 45.3%
- Activity [12]: 58.2%
- Activity [13]: 48.6%
- Activity [14]: 37%
- Activity [15]: 43.5%
- Activity [16]: 47.2%
- Activity [17]: 45.2%
- Activity [18]: 53.3%
- Activity [19]: 41.4%
- Activity [20]: 29.6%
- Activity [21]: 49.8%
- Activity [22]: 41.4%
- Activity [23]: 36.9%
- Activity [24]: 32.2%
- Activity [25]: 10.1%
- Activity [26]: 40.8%
- Activity [27]: 36.3%
- Activity [28]: 48.5%
- Activity [29]: 44.2%
- Activity [30]: 53.7%
- Activity [31]: 28.3%
- Activity [32]: 43.6%
- Activity [33]: 41.1%
- Activity [34]: 54.5%
- Activity [35]: 50.1%
- Activity [36]: 27.2%
SMILES: NCC1O[C@H](O[C@H]2[C@@H](O)[C@H](O[C@@H]3[C@@H](O)[C@H](N)C[C@H](N)[C@H]3O[C@H]3O[C@H](CN)[C@@H](O)[C@H](O)[C@H]3N)O[C@@H]2CSCCNC(=O)CCSCC(=O)Nc2ccc(-c3c4ccc(=O)cc-4oc4cc(O)ccc34)c(C(=O)O)c2)[C@H](N)[C@@H](O)[C@@H]1O (stereo partly specified)

Reference: ChEMBL document CHEMBL4000244, “Probing A-form DNA: A fluorescent aminosugar probe and dual recognition by anthraquinone-neomycin conjugates” (Bioorg Med Chem, 2017)
